Measured values: US6875768B1, “Phthalamide derivatives, intermediates in the production thereof, and agricultural/horticultural insecticides and method for using the same” (Nihon Nohyako Co., Ltd., priority 1999, dated 2005)

How the values were obtained:
[1] = test system: rice leafroller (Cnaphalocrosis medinalis); settings: 500 ppm; rice lamina immersed about 30 seconds; third-instar larvae; four days after the inoculation; 25° C., humidity 70%
Procedure: Insecticidal effect on rice leafroller (Cnaphalocrosis medinalis)
After air-dryness, the lamina was placed in a plastic Petri dish with a diameter of 9 cm whose bottom had been covered with a wetted filter paper. The lamina was inoculated with third-instar larvae of rice leafroller, after which the dish was allowed to stand in a room thermostatted at 25° C. and having a humidity of 70%. Four days after the inoculation, the dead and alive were counted and the insecticidal effect was judged according to the criterion shown in Test Example 1. The test was carried out with triplicate groups of 10 insects.

[2] = test system: diamond back moth (Plutella xylostella); type: in vivo; settings: 1,000 ppm; Chinese cabbage seedling with eggs immersed about 30 seconds; counted six days after the immersion; 25° C.
From the text: Insecticidal effect on diamond back moth (Plutella xylostella)
Adult diamond back moths were released and allowed to oviposit on a Chinese cabbage seedling. […] Six days after the immersion, the hatched insects were counted. […] [formula] Criterion • A - - - Mortality 100% • B - - - Mortality 99-90% • C - - - Mortality 89-80% • D - - - Mortality 79-50%

[3] = test system: Common cutworm (Spodoptera litura); type: in vivo; settings: 500 ppm; cabbage leaf immersed about 30 seconds; second-instar larvae; eight days after the inoculation; 25° C.
From the text: Insecticidal Effect on Common cutworm (Spodoptera litura)

SMILES: CSCC(C)NC(=O)c1c(I)cccc1C(=O)Nc1ccc(C(F)(C(F)(F)F)C(F)(F)F)nc1C (stereo not shown) [Q27-145]
- insecticidal effect (activity ranking by mortality) [1]: B or higher
- insecticidal effect (activity ranking by mortality) [2]: B or higher
- insecticidal effect (activity ranking by mortality) [3]: B or higher

SMILES: CC(C)NC(=O)c1c(I)cccc1C(=O)Nc1ccc(C(F)(F)C(F)(F)C(F)(F)F)nc1 [Q27-135]
- insecticidal effect (activity ranking by mortality) [1]: B or higher
- insecticidal effect (activity ranking by mortality) [2]: B or higher
- insecticidal effect (activity ranking by mortality) [3]: B or higher

SMILES: CC(C)(C)NC(=O)c1c(I)cccc1C(=O)Nc1ccc(C(F)(F)C(F)(F)C(F)(F)F)nc1 [Q27-141]
- insecticidal effect (activity ranking by mortality) [1]: B or higher
- insecticidal effect (activity ranking by mortality) [2]: B or higher
- insecticidal effect (activity ranking by mortality) [3]: B or higher

SMILES: CC(C)NC(=O)c1c(C(=O)Nc2cccnc2)cccc1[N+](=O)[O-] [Q27-164]
- insecticidal effect (activity ranking by mortality) [1]: B or higher
- insecticidal effect (activity ranking by mortality) [2]: B or higher
- insecticidal effect (activity ranking by mortality) [3]: B or higher

SMILES: CC(C)(C)NC(=O)c1c(I)cccc1C(=O)Nc1ccc(C(F)(C(F)(F)F)C(F)(F)F)nc1 [Q27-139]
- insecticidal effect (activity ranking by mortality) [1]: B or higher
- insecticidal effect (activity ranking by mortality) [2]: B or higher
- insecticidal effect (activity ranking by mortality) [3]: B or higher

SMILES: CC(C)CSc1ccncc1NC(=O)c1cccc(Cl)c1C(=O)NC(C)C [Q27-32]
- insecticidal effect (activity ranking by mortality) [1]: B or higher
- insecticidal effect (activity ranking by mortality) [2]: B or higher
- insecticidal effect (activity ranking by mortality) [3]: B or higher

SMILES: CCN(CC)C(=O)c1c(I)cccc1C(=O)Nc1ncc(C(F)(F)C(F)(F)F)cc1C [Q26-29]
- insecticidal effect (activity ranking by mortality) [1]: B or higher
- insecticidal effect (activity ranking by mortality) [2]: B or higher
- insecticidal effect (activity ranking by mortality) [3]: B or higher

SMILES: CC(C)CSc1ccc(NC(=O)c2c(Cl)cccc2C(=O)NC(C)C)cn1 [Q27-127]
- insecticidal effect (activity ranking by mortality) [1]: B or higher
- insecticidal effect (activity ranking by mortality) [2]: B or higher
- insecticidal effect (activity ranking by mortality) [3]: B or higher

SMILES: CC(C)NC(=O)c1ccccc1C(=O)Nc1ncc(C(F)(F)F)cc1Cl [Q26-1]
- insecticidal effect (activity ranking by mortality) [1]: B or higher
- insecticidal effect (activity ranking by mortality) [2]: B or higher
- insecticidal effect (activity ranking by mortality) [3]: B or higher

SMILES: CCN(CC)C(=O)c1c(I)cccc1C(=O)Nc1ccc(Br)cn1 [Q26-33]
- insecticidal effect (activity ranking by mortality) [1]: B or higher
- insecticidal effect (activity ranking by mortality) [2]: B or higher
- insecticidal effect (activity ranking by mortality) [3]: B or higher

SMILES: CCN(CC)C(=O)c1c(I)cccc1C(=O)Nc1ccc(Oc2ccc(Br)cc2)nc1 [Q27-132]
- insecticidal effect (activity ranking by mortality) [1]: B or higher
- insecticidal effect (activity ranking by mortality) [2]: B or higher
- insecticidal effect (activity ranking by mortality) [3]: B or higher

SMILES: CC(C)NC(=O)c1cccc(Cl)c1C(=O)Nc1ccc(Oc2ccc(Cl)cc2Cl)nc1 [Q27-125]
- insecticidal effect (activity ranking by mortality) [1]: B or higher
- insecticidal effect (activity ranking by mortality) [2]: B or higher
- insecticidal effect (activity ranking by mortality) [3]: B or higher

SMILES: CCN(CC)C(=O)c1c(I)cccc1C(=O)Nc1ccc(Cl)nc1 [Q27-130]
- insecticidal effect (activity ranking by mortality) [1]: B or higher
- insecticidal effect (activity ranking by mortality) [2]: B or higher
- insecticidal effect (activity ranking by mortality) [3]: B or higher

SMILES: CCN(CC)C(=O)c1c(I)cccc1C(=O)Nc1ccc(C(F)(F)C(F)(F)C(F)(F)F)nc1 [Q27-131]
- insecticidal effect (activity ranking by mortality) [1]: B or higher
- insecticidal effect (activity ranking by mortality) [2]: B or higher
- insecticidal effect (activity ranking by mortality) [3]: B or higher

SMILES: Cc1cc(C(F)(C(F)(F)F)C(F)(F)F)ncc1NC(=O)c1cccc(I)c1C(=O)NC(C)C [Q27-137]
- insecticidal effect (activity ranking by mortality) [1]: B or higher
- insecticidal effect (activity ranking by mortality) [2]: B or higher
- insecticidal effect (activity ranking by mortality) [3]: B or higher

SMILES: CC(C)NC(=O)c1cccc(Cl)c1C(=O)Nc1ccc(SC(C)C)nc1 [Q27-126]
- insecticidal effect (activity ranking by mortality) [1]: B or higher
- insecticidal effect (activity ranking by mortality) [2]: B or higher
- insecticidal effect (activity ranking by mortality) [3]: B or higher

SMILES: CC(C)(CS(C)(=O)=O)NC(=O)c1c(I)cccc1C(=O)Nc1cccnc1C(F)(C(F)(F)F)C(F)(F)F [Q27-239]
- insecticidal effect (activity ranking by mortality) [2]: B or higher
- insecticidal effect (activity ranking by mortality) [3]: B or higher

SMILES: CSCC(C)NC(=O)c1c(I)cccc1C(=O)Nc1ccc(OCC(F)(F)C(F)(F)F)nc1C (stereo not shown) [Q27-414]
- insecticidal effect (activity ranking by mortality) [2]: B or higher
- insecticidal effect (activity ranking by mortality) [3]: B or higher

SMILES: Cc1nc(OC(C(F)(F)F)C(F)(F)F)ccc1NC(=O)c1cccc(Cl)c1C(=O)NC(C)(C)C [Q27-298]
- insecticidal effect (activity ranking by mortality) [2]: B or higher
- insecticidal effect (activity ranking by mortality) [3]: B or higher

SMILES: CSCC(C)(C)NC(=O)c1c(I)cccc1C(=O)Nc1c(Cl)cc(C(F)(C(F)(F)F)C(F)(F)F)nc1Cl [Q27-240]
- insecticidal effect (activity ranking by mortality) [2]: B or higher
- insecticidal effect (activity ranking by mortality) [3]: B or higher

SMILES: CSCC(C)(C)NC(=O)c1c(I)cccc1C(=O)Nc1ccc(NC(=O)C(F)(F)C(F)(F)F)nc1C [Q27-439]
- insecticidal effect (activity ranking by mortality) [2]: B or higher
- insecticidal effect (activity ranking by mortality) [3]: B or higher

SMILES: CSCC(C)(C)NC(=O)c1c(I)cccc1C(=O)Nc1cnc(C(F)(C(F)(F)F)C(F)(F)F)cc1C [Q27-150]
- insecticidal effect (activity ranking by mortality) [2]: B or higher
- insecticidal effect (activity ranking by mortality) [3]: B or higher

SMILES: Cc1nc(C(F)(C(F)(F)F)C(F)(F)F)ccc1NC(=O)c1cccc(I)c1C(=O)NC(C)(C)CS(C)(=O)=O [Q27-155]
- insecticidal effect (activity ranking by mortality) [2]: B or higher
- insecticidal effect (activity ranking by mortality) [3]: B or higher

SMILES: CSCC(C)NC(=O)c1c(I)cccc1C(=O)Nc1ccc(OC(F)(F)C(F)OC(F)(F)C(F)(F)C(F)(F)F)nc1Cl (stereo not shown) [Q27-407]
- insecticidal effect (activity ranking by mortality) [2]: B or higher
- insecticidal effect (activity ranking by mortality) [3]: B or higher

SMILES: CSCC(C)(C)NC(=O)c1c(I)cccc1C(=O)Nc1cnc(C(F)(C(F)(F)F)C(F)(F)F)nc1C [Q32-19]
- insecticidal effect (activity ranking by mortality) [2]: B or higher
- insecticidal effect (activity ranking by mortality) [3]: B or higher

SMILES: Cc1nc(OC(F)(F)C(F)OC(F)(F)C(F)(F)C(F)(F)F)ccc1NC(=O)c1cccc(I)c1C(=O)NC(C)C (stereo not shown) [Q27-397]
- insecticidal effect (activity ranking by mortality) [2]: B or higher
- insecticidal effect (activity ranking by mortality) [3]: B or higher

SMILES: Cc1nc(OC(C(F)(F)F)C(F)(F)F)ccc1NC(=O)c1cccc(C(F)(F)F)c1C(=O)NC(C)(C)C[S+](C)[O-] (stereo not shown) [Q27-360]
- insecticidal effect (activity ranking by mortality) [2]: B or higher
- insecticidal effect (activity ranking by mortality) [3]: B or higher

SMILES: CSCC(C)(C)NC(=O)c1c(I)cccc1C(=O)Nc1ccc(C(F)(C(F)(F)F)C(F)(F)F)nc1Cl [Q27-234]
- insecticidal effect (activity ranking by mortality) [2]: B or higher
- insecticidal effect (activity ranking by mortality) [3]: B or higher

SMILES: COc1nc(C(F)(C(F)(F)F)C(F)(F)F)ccc1NC(=O)c1cccc(I)c1C(=O)NC(C)C [Q27-242]
- insecticidal effect (activity ranking by mortality) [2]: B or higher
- insecticidal effect (activity ranking by mortality) [3]: B or higher

SMILES: CSCC(C)(C)NC(=O)c1c(I)cccc1C(=O)Nc1ccc(C(F)(C(F)(F)F)C(F)(F)F)nc1SC [Q27-245]
- insecticidal effect (activity ranking by mortality) [2]: B or higher
- insecticidal effect (activity ranking by mortality) [3]: B or higher

SMILES: CCNC(=O)c1c(I)cccc1C(=O)Nc1cnc(C(F)(C(F)(F)F)C(F)(F)F)cn1 [Q34-46]
- insecticidal effect (activity ranking by mortality) [2]: B or higher
- insecticidal effect (activity ranking by mortality) [3]: B or higher

SMILES: CSCC(C)(C)NC(=O)c1c(I)cccc1C(=O)Nc1ccc(OC(F)(F)C(F)F)nc1Cl [Q27-388]
- insecticidal effect (activity ranking by mortality) [2]: B or higher
- insecticidal effect (activity ranking by mortality) [3]: B or higher

SMILES: Cc1nc(OC(C(F)(F)F)C(F)(F)F)ccc1NC(=O)c1cccc([N+](=O)[O-])c1C(=O)NC(C)(C)CS(C)(=O)=O [Q27-353]
- insecticidal effect (activity ranking by mortality) [2]: B or higher
- insecticidal effect (activity ranking by mortality) [3]: B or higher

SMILES: CSCC(C)(C)NC(=O)c1c(I)cccc1C(=O)Nc1ccc(C(F)(C(F)(F)F)C(F)(F)F)nc1C [Q27-243]
- insecticidal effect (activity ranking by mortality) [2]: B or higher
- insecticidal effect (activity ranking by mortality) [3]: B or higher

SMILES: Cc1nc(OC(C(F)(F)F)C(F)(F)F)ccc1NC(=O)c1cccc(C(F)(F)F)c1C(=O)NC(C)(C)C [Q27-355]
- insecticidal effect (activity ranking by mortality) [2]: B or higher
- insecticidal effect (activity ranking by mortality) [3]: B or higher

SMILES: Cc1nc(OCC(F)(F)C(F)(F)F)ccc1NC(=O)c1cccc(I)c1C(=O)NC(C)C [Q27-413]
- insecticidal effect (activity ranking by mortality) [2]: B or higher
- insecticidal effect (activity ranking by mortality) [3]: B or higher

SMILES: C[S+]([O-])CC(C)(C)NC(=O)c1c(I)cccc1C(=O)Nc1cccnc1C(F)(C(F)(F)F)C(F)(F)F (stereo not shown) [Q27-238]
- insecticidal effect (activity ranking by mortality) [2]: B or higher
- insecticidal effect (activity ranking by mortality) [3]: B or higher

SMILES: Cc1nc(OC(F)(F)C(F)F)ccc1NC(=O)c1cccc(I)c1C(=O)NC(C)C [Q27-378]
- insecticidal effect (activity ranking by mortality) [2]: B or higher
- insecticidal effect (activity ranking by mortality) [3]: B or higher

SMILES: COc1nc(OC(C(F)(F)F)C(F)(F)F)ccc1NC(=O)c1cccc(I)c1C(=O)NC(C)(C)CSC [Q27-268]
- insecticidal effect (activity ranking by mortality) [2]: B or higher
- insecticidal effect (activity ranking by mortality) [3]: B or higher
